Experimental findings from patent US8415336B2, “Cyclic (aza)indolizinecarboxamides, their preparation and their use as pharmaceuticals” (Sanofi, priority 2009, dated 2013) are described below.

One may read the melting point as the temperature of the solid-liquid transition.

Counter-ions that a name gives are not always drawn.

Molecule `CNC(=O)CC[C@H]1CN(C(=O)c2c(Cc3cccc(F)c3C)c(-c3ccccc3)c3ccccn23)CCN1` (as salt: hydrochloride) [Example 26] returned a melting point of 127 to 129 °C.

The molecule `Cc1c(F)cccc1Cc1c(-c2ccccc2)c2ccccn2c1C(=O)N1CCN[C@@H](CC(=O)NCCS(C)(=O)=O)C1` (as salt: hydrochloride) [Example 31] gave a melting point of 166 to 168 °C.

`COC(=O)CCNC(=O)C[C@H]1CN(C(=O)c2c(Cc3cccc(F)c3C)c(-c3ccccc3)c3ccccn23)CCN1` (as salt: hydrochloride) [Example 30] registered a melting point of 112 to 113 °C.

The molecule `Cc1c(F)cccc1Cc1c(-c2ccccc2)c2ccccn2c1C(=O)N1CCNCC1` (as salt: hydrochloride) [Example 1, [2-(3-Fluoro-2-methyl-benzyl)-1-phenyl-indolizin-3-yl]-piperazin-1-yl-methanone] yielded a melting point of 263 °C.

Turning to `COCCN(C)C(=O)C[C@H]1CN(C(=O)c2c(Cc3cccc(F)c3C)c(-c3ccccc3)c3cc(C(=O)N(C)C)cnn23)CCN1` (as salt: hydrochloride) [Example 46], the melting point lay in the range of 130 to 132 °C.

`CCNC(=O)c1cnn2c(C(=O)N3CCN[C@@H](CC(=O)NCCOC)C3)c(Cc3cccc(F)c3C)c(-c3ccccc3)c2c1` (as salt: hydrochloride) [Example 42, 6-(3-fluoro-2-methyl-benzyl)-7-{(S)-3-[(2-methoxy-ethylcarbamoyl)-methyl]-piperazine-1-carbonyl}-5-phenyl-pyrrolo[1,2-b]pyridazine-3-carboxylic acid ethylamide] showed a melting point of 151 to 153 °C.

`Cc1c(F)cccc1Cc1c(C2CCCCC2)c2ccccn2c1C(=O)N1CCNCC1` (as salt: hydrochloride) [Example 2, [1-Cyclohexyl-2-(3-fluoro-2-methyl-benzyl)-indolizin-3-yl]-piperazin-1-yl-methanone]: the melting point was 317 to 318 °C.

`Cc1c(F)cccc1Cc1c(-c2ccccc2)c2ccccn2c1C(=O)N1CCN[C@@H](CCO)C1` (as salt: hydrochloride) [Example 5, [2-(3-Fluoro-2-methyl-benzyl)-1-phenyl-indolizin-3-yl]-[(S)-3-(2-hydroxy-ethyl)-piperazin-1]-yl-methanone]: the melting point is 202 °C.

`Cc1c(F)cccc1Cc1c(-c2ccccc2)c2ccccn2c1C(=O)N1CCN[C@@H](CC(=O)NCc2cccnc2)C1` (as salt: hydrochloride) [Example 32] displayed a melting point of 181 to 182 °C.

Molecule `Cc1c(F)cccc1Cc1c(-c2ccccc2)c2ccccn2c1C(=O)N1CCN[C@@H](CO)C1` (as salt: hydrochloride) [Example 22] gave a melting point of 180 to 181 °C.

With `Cc1c(F)cccc1Cc1c(-c2ccccc2)c2cc(O)cnn2c1C(=O)N1CCNCC1` (as salt: hydrochloride) [Example 10, [6-(3-Fluoro-2-methyl-benzyl)-3-hydroxy-5-phenyl-pyrrolo[1,2-b]pyridazin-7-yl]-piperazin-1-yl-methanone], the melting point fell in the range of 206 to 208 °C.

Regarding `CNC(=O)c1cnn2c(C(=O)N3CCNCC3)c(Cc3cccc(F)c3C)c(-c3ccccc3)c2c1` (as salt: hydrochloride) [Example 8, 6-(3-Fluoro-2-methyl-benzyl)-5-phenyl-7-(piperazine-1-carbonyl)-pyrrolo[1,2-b]pyridazin-3-carboxylic acid methylamide], the melting point is 208 to 210 °C.

The molecule `CNC(=O)c1ccn2c(C(=O)N3CCNCC3)c(Cc3cccc(F)c3C)c(-c3ccccc3)c2c1` (as salt: hydrochloride) [Example 4, 2-(3-Fluoro-2-methyl-benzyl)-1-phenyl-3-(piperazine-1-carbonyl)-indolizine-7-carboxylic acid methylamide] came in with a melting point of 205 °C.

Take `O=C(c1c(Cc2c(F)cccc2Cl)c(-c2ccccc2)c2ccccn12)N1CCNCC1` (as salt: hydrochloride) [Example 3, [2-(2-Chloro-6-fluoro-benzyl)-1-phenyl-indolizin-3-yl]-piperazin-1-yl-methanone]: the melting point is 304 °C.
